The values that follow come from patent US12478602B2, “Method for treating a disorder” (priority 2023, dated 2025).

Data set [1] relates to children having autism spectrum disorder. Kind of data set: Phase 2 clinical trial, effectiveness. It counts as in vivo, human. The following applies: high-dose short-term administration group, 24 weeks vs 12 weeks. The method, then: 151 children having autism spectrum disorder were subjected to a multicentered, randomly assigned, double-blinded, placebo-controlled, and therapeutically exploratory phase 2 clinical trial for exploring the effectiveness and evaluating the safety of an AST-001 syrup. An AST-001 syrup used in a clinical trial is a colorless or pale yellow clear syrup which is aromatic and has sweetness, and it comprises, as a main ingredient, 10 g of L-serine in about 100 mL of this drug and is packaged in aluminum foil at a dosage of 2 g/20 mL. The composition of the AST-001 syrup is such that the AST-001 syrup comprises L-serine as a main ingredient, sodium carboxymethyl cellulose as a thickener, methyl paraoxybenzoate and propyl paraoxybenzoate as preservatives, a citric acid hydrate and a potassium citrate hydrate as pH adjusting agents, white sugar and a D-sorbitol solution as sweetening agents, an apple mint flavor SJ-G (22005221) as a fragrance imparting agent, and purified water. […] After the extension study period of 12 weeks ended, the effectiveness and adverse events in patients were followed up and monitored for 12 weeks (that is, follow-up period). […] The K-VABS-II Adaptive Behavior Composite (K-VABS-II ABC) score, which is a primary evaluation variable, is a calculated score (standard score) for the main domain, where the higher score means the higher level of adaptive behavior.

The test system of data set [2] is mPFC pyramidal neurons. Kind of data set: Patch clamp of intrinsic excitability in BTBR mice. It counts as in vivo, mouse. The following applies: 500 mg/kg orally for 2 weeks. The method, then: BTBR T+tf/J (BTBR), which is an animal of autism spectrum disorder, and C57BL/6 mice (used as a control group) were purchased from Jackson Laboratories. […] However, in a case where BTBR mice were orally administered with 500 mg/kg of AST-001 for 2 weeks, and then the firing rate of the action potential was measured, the firing rate of the action potential in the BTBR mice and the control group mice turned out to be similar (see FIG. 5B).
In general terms: The patch-clamp technique gives a direct electrical read-out from membranes.

Data set [3] deals with mice having autism spectrum disorder. The experiment in a line: Individual recognition (novel object recognition, NOR) experiment. The settings on record: 180, 300, 480 or 600 mg/kg/day orally for 21 days; with increasing dosage. It counts as in vivo, mouse. As for the experimental part: Mice having autism spectrum disorder were created by the same method as in Example 1.1. The 3-week-old male mice having autism spectrum disorder were orally injected with 180, 300, 480, or 600 mg/kg/day of L-serine for 21 days and then subjected to an individual recognition test. Eight mice were used for each experimental group. Mice tend to be more interested in a novel object than a familiar object. Therefore, a novel object recognition (NOR) experiment, which is an experiment for checking whether or not mice recognize a novel object, was carried out.

For data set [4] the test system is unchanged. Kind of data set: Spatial memory experiment (Y-maze test). It counts as in vivo, mouse. The settings on record: 180, 300, 480 or 600 mg/kg orally for 28 days; with increasing dosage. As for the experimental part: Mice having autism spectrum disorder were created by the same method as in Example 1.1. The 3-week-old male mice having autism spectrum disorder were orally injected with 180, 300, 480, or 600 mg/kg of L-serine for 28 days and then subjected to a spatial memory test. Normal mice were used as a control group. Eight mice were used for each experimental group. The spatial working memory of the mice was evaluated through the Y-maze test. As the administration dosage of L-serine increased, the value of spontaneous alteration, which is a measure of spatial memory, increased (see FIG. 7).

Data set [5] is described as follows: Pharmacokinetic experiment in healthy adult males. It counts as in vivo, human. The following applies: for AUC(0-t): read-out: average AUClast of L-serine without baseline correction. As for the experimental part:
24 hours before the administration with AST-001 (main component: L-serine), blood was collected to measure the concentration of L-serine. 60 g of an AST-001 powder is a white homogeneous powder without having foreign substances, divided and repackaged into an HDPE bottle or a bottle made of the same material, and the composition of this drug is such that 1,000 mg of the main component L-serine is comprised per 1,000 mg dose. [table]

Where two headings read alike, the source gives them in different places.

For the molecule `N[C@@H](CO)C(=O)O` [AST-001, L-serine], in data set [1], the “amount of score change in the K-VABS-II ABC and the main domain, 2DC and CGI-S” value is reported as “significantly improves”. Also, the “firing rate of the action potential, BTBR mice vs control group mice” value in data set [2] is given as “similar”. In addition, the “discrimination index (DI)” value in data set [3] was “increased”. In addition, the spontaneous alteration entry in data set [4] is recorded as “increased”. Further, in data set [5] (15 g twice a day for 7 days, N = 7, mean ± SD), the CLss/F is on record as 21.97 ± 5.99 L/h. Besides, the AUC is around 883 µg·h/mL in data set [5] (male, human, blood, oral, 15 g, 15 g twice a day for 1 week, steady state, read-out: average AUCtau of L-serine without baseline correction) and 729 ± 202 µg·h/mL in data set [5] (male, human, blood, oral, 15 g, 15 g twice a day for 7 days, N = 7, mean ± SD, read-out: AUCtau, ss). In addition, in data set [5] (male, human, blood, oral, 15 g twice a day for 7 days, N = 7, mean ± SD), the Cmax (in general, the maximum level reached in the sampled fluid or tissue) came out at 212 ± 56.2 µg/mL. In addition, in data set [5] (male, human, blood, oral, 15 g twice a day for 7 days, N = 7, mean ± SD, read-out: Vz/F), the Vd/F was found to be 348 ± 220 L. Also, the half-life is 11 ± 5.17 h in data set [5] (male, human, blood, oral, 15 g twice a day for 7 days, N = 7, mean ± SD, read-out: t1/2 (converted)); 6.5 to 14 h in data set [5] (male, human, blood, oral, read-out: average half-life of extrinsically administered L-serine); around 11 h in data set [5] (male, human, blood, po, 15 g orally twice a day for 7 days, steady state, read-out: average half-life (converted)). Besides, the Tmax (commonly the time at which the peak concentration occurs) in data set [5] (male, human, blood, oral, 15 g twice a day for 7 days, N = 7, median value) worked out at 1 h. The AUC(0-t) in data set [5] (male, human, blood, oral, single administration 10 g) was 613 µg·h/mL; in data set [5] (male, human, blood, oral, single administration 20 g) it was 1130 µg·h/mL; in data set [5] (male, human, blood, oral, single administration 30 g), 1530 µg·h/mL. For the same molecule, the “Cmax, AUClast, and AUCinf with increasing dosage” value in data set [5] (single oral 10 g, 15 g, 20 g or 30 g) is on record as “linearly increased”. The average accumulation index result in data set [5] (steady state vs single administration with 15 g) is on record as “about 1.7 times”.
